From PubChem BioAssay AID1378 (University of Pittsburgh Molecular Library Screening Center, 2008)
Activity calls are given as the source filed them. The rule behind the calls is not given here.

Biological target: RAC-alpha serine/threonine-protein kinase (Homo sapiens) (UniProt P31749)
Test: AKT1 kinase inhibition by PKD hits, dose response, selectivity assay for PKD inhibitor project, biochemical, 57K library, IC50 (AID 1378)

Chain of RAC-alpha serine/threonine-protein kinase (Homo sapiens) (P31749 whole entry, looked up): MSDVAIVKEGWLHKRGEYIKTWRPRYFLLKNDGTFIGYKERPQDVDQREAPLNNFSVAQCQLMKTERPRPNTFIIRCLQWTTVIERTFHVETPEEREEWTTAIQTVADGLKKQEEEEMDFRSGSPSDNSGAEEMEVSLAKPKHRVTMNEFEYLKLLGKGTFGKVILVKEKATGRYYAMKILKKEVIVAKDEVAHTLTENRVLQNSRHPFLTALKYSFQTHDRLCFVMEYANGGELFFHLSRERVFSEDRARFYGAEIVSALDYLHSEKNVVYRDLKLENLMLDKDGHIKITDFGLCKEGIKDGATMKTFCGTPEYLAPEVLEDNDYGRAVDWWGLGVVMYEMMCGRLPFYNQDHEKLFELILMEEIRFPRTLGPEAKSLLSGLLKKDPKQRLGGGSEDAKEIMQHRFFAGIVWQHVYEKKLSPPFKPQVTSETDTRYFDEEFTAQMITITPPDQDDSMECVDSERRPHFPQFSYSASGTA

IC50: > 100 µM (inactive)
SMILES: C/C(=N\Nc1ncc(Cl)cc1Cl)c1ccccn1
